Test results published in patent US20120252730A1, “PLATELET AGGREGATION INHIBITORS” (UNIVERSITY OF CHICAGO, priority 2009, published 2012).
Ends that are not written are not given here.

Tested on: αIIbβ3 CHO K1 cells
Assay: Cell adhesion assay: αIIbβ3 CHO K1 cells on SAMs presenting immobilized peptides
Assay type: cell-based, human
Details: 0.5% peptide SAM; in presence of 300 μM cRGDFG
Description: Monolayers were prepared as described (Houseman, et al., 2003). Glass coverslips were sonicated for 30 minutes in deionized ultrafiltered (DIUF) water and then 30 minutes in ethanol and then dried under a stream of nitrogen. Titanium (4 nm) and then gold (29 nm) were evaporated onto the coverslips using an electron beam evaporator (Boc Edwards) at a rate of 0.05-0.10 nm/s and at a pressure of 1 μTorr. The gold-coated coverslips were immersed in an ethanolic solution of maleimide-terminated disulfide (1%) and tri(ethylene glycol)-terminated disulfide (99%) overnight at room temperature. The total disulfide concentration was 1 mM. The substrates were washed with DIUF water, ethanol and then dried under a stream of nitrogen.
The pcDNA3.1 vectors that express human αIIb or β3, respectively, have been described previously (see e.g., Litvinov et al. (2006) Biochemistry, 45: 4957-4964). CHO K1, BHK 21 and HT1080 cells were purchased from ATCC. All CHO cells were cultured at 37° C. and 5% CO2 using F12K medium supplemented with 10% FBS and pen/strep. […] CHO K1 cells were transfected with αIIb and β3 cDNA with FuGENE following the supplier's protocol. Transfected cells were selected with 1 mg/mL zeocin and 1 mg/mL geneticin.
(§1) Cysteine-terminated peptides were immobilized onto maleimide-presenting SAMs by adding 40 μL of 1 mM peptide solution to the biochip and incubating at 37° C. for 1 hour. Substrates were rinsed with DIUF water and ethanol and dried under a stream of nitrogen. αIIbβ3 CHO K1 cells were detached from culture plates with 1 mM EGTA/2 mM EDTA in PBS (phosphate-buffered saline), rinsed with serum-free F-12K medium, centrifuged and resuspended in serum-free F-12K medium supplemented with cRGDFG (SEQ ID NO: 12) (300 μM) and 1× penicillin/streptomycin. After 15-minute of incubation, cells (200,000/mL) were added to substrates in 24-well culture plates. After 2 hour incubation at 37° C. and 5% CO2, media was exchanged for F-12K medium supplemented with 10% FBS, 1× penicillin/streptomycin and cRGDFG (SEQ ID NO: 12) (300 μM). After 2 hours, the substrates were washed gently with warm PBS, and adherent cells were immediately fixed with 4% formaldehyde for 30 minutes, visualized with a 20× objective of a Zeiss Axiovert 200 inverted microscope, and photographed. For cell adhesion assays mediated by Ac-GXGDSC (SEQ ID NO: 26), αIIbβ3 CHO K1 cells were incubated on a 5×4 circle (1 mm diameter) array for 1 hour with serum-free F-12K medium supplemented with cRGDFG (SEQ ID NO: 12) (300 μM) and 1× penicillin/streptomycin, followed by media exchange to F-12K medium supplemented with 10% FBS, 1× penicillin/streptomycin and cRGDFG (SEQ ID NO: 12) (300 μM. The substrates were washed with warm PBS, and adherent cells were immediately fixed and permeabilized with 4% formaldehyde and 0.5% Triton-X for 30 minutes. Fixed cells were stained with DAPI, visualized and photographed with a 20× objective as described. The number of adherent cells per field of view was counted using Image J software. Cells were counted in at least three fields for each circle, and each experiment was repeated 3 times. The degree of adhesion is reported as a percentage of cells that adhere relative to control experiments with the peptide Ac-GRGDSC (SEQ ID NO: 28).
Monolayers were prepared that presented a mixture of maleimide groups and tri(ethylene glycol) groups with the former present at a density of 0.5% (relative to total alkanethiolate). The monolayers were treated with cysteine-terminated peptides to immobilize the ligands (FIG. 1A). In each case mass spectrometry was used to verify immobilization of the peptides in high yield (Su et al., 2002).
The adhesion and spreading of αIIbβ3 CHO K1 cells to monolayers presenting GRGDSC (SEQ ID NO: 11), HHLGGAKQAGDVC (SEQ ID NO: 21) and a mixture of both peptides was compared. […]

Row | Molecule | adhesion of αIIbβ3 CHO K1 cells to monolayer presenting the peptide
1 | GGRDGSC (scrambled peptide) | lack of cell attachment

Tested on: αIIbβ3 CHO K1 cells
Assay: Ac-GXGDSC peptide array cell adhesion, αIIbβ3 CHO K1 cells
Assay type: cell-based, human
Details: 0.5% peptide spots; 300 μM cRGDFG
Description: as §1
To further assay the binding of peptide ligands to the […] integrin for XGD peptide ligands, an array was used to assess the adhesion of cells to peptides having the arginine residue substituted with each amino acid other than cysteine (e.g., A, D, E, F, G, H, I, K, L, M, N, P, Q, R, S, T, V, W, and Y). The library of Ac-GXGDSC (SEQ ID NO: 26) peptides was synthesized and immobilized in an array with each peptide occupying a 1 mm diameter region of the monolayer (FIG. 61). A suspension of αIIbβ3 CHO K1 cells was applied to the entire array and cells were allowed to attach to regions presenting the various peptides. The substrates were then rinsed and stained with DAPI, and the cells were counted to determine the relative efficiency of cell attachment to peptides in the library. […] Substitution with leucine and isoleucine were also active, though at a lower level.

Row | Molecule | cell adhesion on Ac-GXGDSC array relative to Ac-GRGDSC
2 | Ac-GIGDSC (Ac-GIGDSC-NH2) | mediated αIIbβ3 CHO K1 cell adhesion
3 | Ac-GAGDSC (Ac-GAGDSC-NH2) | mediated αIIbβ3 CHO K1 cell adhesion
4 | GGRDGSC (scrambled peptide) | did not adhere
5 | Ac-GKGDSC (Ac-GKGDSC-NH2) | mediated αIIbβ3 CHO K1 cell adhesion
6 | Ac-GGGDSC (Ac-GGGDSC-NH2) | mediated αIIbβ3 CHO K1 cell adhesion
7 | Ac-GLGDSC (Ac-GLGDSC-NH2) | mediated αIIbβ3 CHO K1 cell adhesion
8 | Ac-GVGDSC (Ac-GVGDSC-NH2) | mediated αIIbβ3 CHO K1 cell adhesion

Target: T1, human αIIbβ3 integrin on transfected CHO K1 cells (human, UniProt P08514 32-1039; P05106 27-788)
T1 construct: whole, on cells; CHO K1 cells transfected with human αIIb and β3 cDNA; about 30% of the cells expressed the receptor; also called platelet receptor; platelet integrin
Assay: soluble peptide (1 pM to 100 µM) inhibits adhesion of αIIbβ3 CHO K1 cells to peptide monolayers
Details: not given
Description: (§2) Suspensions of αIIbβ3 CHO K1 cells (100,000/mL) were incubated with cRGDFG (SEQ ID NO: 12) (300 μM) in serum-free F-12K medium with 1 mg/mL BSA (bovine serum albumin) and 1× penicillin/streptomycin for 15 minutes at 37° C. and 5% CO₂. These suspensions were then supplemented with soluble peptides at concentrations ranging from 1 pM to 100 μM and further incubated for 15 minutes at 37° C. and 5% CO₂. Cells were then added to monolayers and incubated at 37° C. and 5% CO₂ for 2 hours, then media was exchanged for F-12K medium supplemented with 10% FBS and 1× penicillin/streptomycin. The substrates were further incubated for 2 hours. The substrates were washed gently with warm PBS, and adherent cells were immediately fixed and permeabilized with 4% formaldehyde and 0.5% Triton-X for 30 minutes. Fixed cells were stained with DAPI, visualized and photographed with a 20× as described previously. The number of adherent cells per field of view was counted using Image J. Cells were counted in at least five fields for each substrate, and each experiment was repeated 3 times. The degree of inhibition is reported as a percentage of cells that adhere relative to control experiments in the absence of soluble peptide.
To verify that the two peptides interact with the same site on αIIbβ3, it was determined whether the peptides GRGDS (SEQ ID NO: 4), […] (SEQ ID NO: 1) and AGDV (SEQ ID NO: 22), in soluble form, could block the attachment of cells to the monolayers presenting these ligands. In these experiments identical suspensions of cells (100,000/mL) were first incubated in serum-free F-12K medium supplemented with cRGDFG (SEQ ID NO: 12) (300 μM) and with the soluble peptides in concentrations ranging from 1 pM to 100 μM and then applied the mixtures to monolayers presenting either the GRGDSC (SEQ ID NO: 11), […] (SEQ ID NO: 21), or AGDVC (SEQ ID NO: 17) peptide (SEQ ID NO: 17) (FIG. 5). Cells were allowed to attach for 2 hours, after which media was exchanged to 10% FBS F-12K medium (supplemented with cRGDFG (SEQ ID NO: 12)) and cultured for an additional 2 hours. […]

Row | Molecule | binding result
9 | HHLGGAKQAGDV-NH2 (Synthetic peptide; also called γ peptide) [HHLGGAKQAGDV (SEQ ID NO: 1), soluble peptide] | binds
10 | AGDV-NH2 (also called soluble AGDV) [AGDV (SEQ ID NO: 22), soluble peptide] | binds
11 | GRGDS-NH2 (also called soluble GRGDS) [GRGDS (SEQ ID NO: 4), soluble peptide] | binds

Tested on: αIIbβ3 CHO K1 cells
Assay: Cell adhesion inhibition assay with soluble peptides
Assay type: cell-based, human
Details: monolayer presenting GRGDS
Description: as §2, with “CO2.” for “CO₂.”, “CO2” for “CO₂”
To verify that the two peptides interact with the same site on αIIbβ3, it was determined whether the peptides GRGDS (SEQ ID NO: 4), HHLGGAKQAGDV (SEQ ID NO: 1) and AGDV (SEQ ID NO: 22), in soluble form, could block the attachment of cells to the monolayers presenting these ligands. In these experiments identical suspensions of cells (100,000/mL) were first incubated in serum-free F-12K medium supplemented with cRGDFG (SEQ ID NO: 12) (300 μM) and with the soluble peptides in concentrations ranging from 1 pM to 100 μM and then applied the mixtures to monolayers presenting either the GRGDSC (SEQ ID NO: 11), HHLGGAKQAGDVC (SEQ ID NO: 21), or AGDVC (SEQ ID NO: 17) peptide (SEQ ID NO: 17) (FIG. 5). Cells were allowed to attach for 2 hours, after which media was exchanged to 10% FBS F-12K medium (supplemented with cRGDFG (SEQ ID NO: 12)) and cultured for an additional 2 hours. The slides were then rinsed and nuclei were stained with DAPI to facilitate counting of the adherent cells. […] This experiment again verifies that the cell attachment is mediated by the immobilized peptide alone and not non-specific interactions between other cell-surface molecules and the monolayer.

Row | Molecule | block of cell attachment by soluble peptide
12 | AGDV (completely synthesized peptide) | blocked cell attachment

Same assay, conditions: monolayers presenting GRGDSC, HHLGGAKQAGDVC or AGDVC; soluble peptide 1 pM to 100 μM; 300 μM cRGDFG

Row | Molecule | block of cell attachment by soluble peptide
13 | AGDV (completely synthesized peptide) | could block cell attachment to monolayers presenting any of the three peptides
14 | GGRDGS (scrambled peptide) | had no effect on cell adhesion
15 | GRGDS (synthesized peptide inhibitor) | could block cell attachment to monolayers presenting any of the three peptides
